What follows are compounds tested against GST-Bcl-2 (Homo sapiens (Human), UniProt P10415) (assay: Time Resolved-Fluorescence Resonance Energy Transfer (TR-FRET) Bcl-2 binding assay). Conditions: GST-Bcl-2 1 nM, F-Bak peptide probe 100 nM, Tb-anti-GST antibody 1 nM; Ki by Wang's equation.
Summary of the method: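 Ki values derived from TR-FRET displacement of F-Bak peptide from GST-Bcl-2, detected with Tb-labelled anti-GST antibody (ex 340, em 520/495 nm). Compound dilution series started at 50 μM (2× starting concentration); room-temperature incubation 3 hours.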

Chain of GST-Bcl-2 (P10415 whole entry): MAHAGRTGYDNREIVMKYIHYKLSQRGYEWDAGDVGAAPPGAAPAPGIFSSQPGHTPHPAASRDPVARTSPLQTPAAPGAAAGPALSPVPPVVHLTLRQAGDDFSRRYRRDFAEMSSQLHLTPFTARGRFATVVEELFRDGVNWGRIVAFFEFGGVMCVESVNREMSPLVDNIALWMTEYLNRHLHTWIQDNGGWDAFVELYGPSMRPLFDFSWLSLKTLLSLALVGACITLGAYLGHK

| Compound | Ki [nM] |
| --- | --- |
| CC1(C)CCC(CN2CCN(c3ccc(C(=O)NS(=O)(=O)c4ccc(NCC5CCOCC5)c([N+](=O)[O-])c4)c(Oc4cccc(Cl)c4)c3)CC2)=C(c2ccc(Cl)cc2)C1 [Example 246, 2-(3-chlorophenoxy)-4-(4-{[2-(4-chlorophenyl)-4,4-dimethylcyclohex-1-en-1-yl]methyl}piperazin-1-yl)-N-({3-nitro-4-[(tetrahydro-2H-pyran-4-ylmethyl)amino]phenyl}sulfonyl)benzamide] | 0.065 |
| CN1CCC(Nc2ccc(S(=O)(=O)NC(=O)c3ccc(N4CCN(CC5=C(c6ccc(Cl)cc6)CC(C)(C)OC5)CC4)cc3Oc3cccc(F)c3F)cc2[N+](=O)[O-])CC1 [Example 145, 4-(4-{[4-(4-chlorophenyl)-6,6-dimethyl-5,6-dihydro-2H-pyran-3-yl]methyl}piperazin-1-yl)-2-(2,3-difluorophenoxy)-N-({4-[(1-methylpiperidin-4-yl)amino]-3-nitrophenyl}sulfonyl)benzamide] | 0.057 |
| O=C(NS(=O)(=O)c1ccc(NCC2CCOCC2)c([N+](=O)[O-])c1)c1ccc(N2CCN(Cc3ccccc3-c3ccc(Cl)cc3)CC2)cc1Oc1ccccc1-c1ccccc1 [Example 84, 2-(1,1′-biphenyl-2-yloxy)-4-(4-((4′-chloro-1,1′-biphenyl-2-yl)methyl)piperazin-1-yl)-N-((3-nitro-4-((tetrahydro-2H-pyran-4-ylmethyl)amino)phenyl)sulfonyl)benzamide] | 13.7 |
| CC1(C)CCC(CN2CCN(c3ccc(C(=O)NS(=O)(=O)c4ccc(NC5CCN(C6CCOCC6)CC5)c([N+](=O)[O-])c4)c(Oc4cc5cc[nH]c5cc4F)c3)CC2)=C(c2ccc(Cl)cc2)C1 [Example 193, 4-(4-{[2-(4-chlorophenyl)-4,4-dimethylcyclohex-1-en-1-yl]methyl}piperazin-1-yl)-2-[(6-fluoro-1H-indol-5-yl)oxy]-N-({3-nitro-4-[(1-tetrahydro-2H-pyran-4-ylpiperidin-4-yl)amino]phenyl}sulfonyl)benzamide] | 0.064 |
| CC1(C)CCC(CN2CCN(c3ccc(C(=O)NS(=O)(=O)c4ccc(NCC5CCOCC5)c([N+](=O)[O-])c4)c(Oc4cc5cc[nH]c5cc4F)c3)CC2)=C(c2ccc(Cl)cc2)C1 [Example 238, 4-(4-{[2-(4-chlorophenyl)-4,4-dimethylcyclohex-1-en-1-yl]methyl}piperazin-1-yl)-2-[(6-fluoro-1H-indol-5-yl)oxy]-N-({3-nitro-4-[(tetrahydro-2H-pyran-4-ylmethyl)amino]phenyl}sulfonyl)benzamide] | 0.124 |
| CC1(C)CCC(CN2CCN(c3ccc(C(=O)NS(=O)(=O)c4ccc(NCC5COCCO5)c([N+](=O)[O-])c4)c(Oc4cc5cc[nH]c5cc4F)c3)CC2)=C(c2ccc(Cl)cc2)C1 (centres unmarked) [Example 292, 4-(4-{[2-(4-chlorophenyl)-4,4-dimethylcyclohex-1-en-1-yl]methyl}piperazin-1-yl)-N-({4-[(1,4-dioxan-2-ylmethyl)amino]-3-nitrophenyl}sulfonyl)-2-[(6-fluoro-1H-indol-5-yl)oxy]benzamide] | 0.191 |
| 4-(4-{[4-(4-chlorophenyl)-6,6-dimethyl-5,6-dihydro-2H-pyran-3-yl]methyl)}piperazin-1-yl)-2-[(6-fluoro-1H-indol-5-yl)oxy]-N-({4-[(4-fluorotetrahydro-2H-pyran-4-yl)methoxy]-3-nitrophenyl}sulfonyl)benzamide [Example 297] | < 0.01 |
| CC1(C)CCC(CN2CCN(c3ccc(C(=O)NS(=O)(=O)c4cnc(OCC5(F)CCOCC5)c(Cl)c4)c(Oc4cnc(N)c(Cl)c4)c3)CC2)=C(c2ccc(Cl)cc2)C1 [Example 349, 2-[(6-amino-5-chloropyridin-3-yl)oxy]-N-({5-chloro-6-[(4-fluorotetrahydro-2H-pyran-4-yl)methoxy]pyridin-3-yl}sulfonyl)-4-(4-{[2-(4-chlorophenyl)-4,4-dimethylcyclohex-1-en-1-yl]methyl}piperazin-1-yl)benzamide] | 0.019 |
| CC1(C)CCC(CN2CCN(c3ccc(C(=O)NS(=O)(=O)c4ccc(NC5CCN(C6CCOCC6)CC5)c([N+](=O)[O-])c4)c(Oc4cccc(F)c4Cl)c3)CC2)=C(c2ccc(Cl)cc2)C1 [Example 178, 2-(2-chloro-3-fluorophenoxy)-4-(4-{[2-(4-chlorophenyl)-4,4-dimethylcyclohex-1-en-1-yl]methyl}piperazin-1-yl)-N-({3-nitro-4-[(1-tetrahydro-2H-pyran-4-ylpiperidin-4-yl)amino]phenyl}sulfonyl)benzamide] | 0.175 |
| CN1C(C)(C)CC(Nc2ccc(S(=O)(=O)NC(=O)c3ccc(N4CCN(CC5=C(c6ccc(Cl)cc6)CC(C)(C)CC5)CC4)cc3Oc3ccccc3Cl)cc2[N+](=O)[O-])CC1(C)C [Example 48, 2-(2-chlorophenoxy)-4-(4-((2-(4-chlorophenyl)-4,4-dimethylcyclohex-1-en-1-yl)methyl)piperazin-1-yl)-N-((3-nitro-4-((1,2,2,6,6-pentamethylpiperidin-4-yl)amino)phenyl)sulfonyl)benzamide] | 0.053 |
| O=C(NS(=O)(=O)c1ccc(NCCCN2CCOCC2)c([N+](=O)[O-])c1)c1ccc(N2CCN(Cc3ccccc3-c3ccc(Cl)cc3)CC2)cc1Oc1ccc(-c2cccnc2)cc1 [Example 100, 4-(4-((4′-chloro-1,1′-biphenyl-2-yl)methyl)piperazin-1-yl)-N-((4-((3-morpholin-4-ylpropyl)amino)-3-nitrophenyl)sulfonyl)-2-(4-pyridin-3-ylphenoxy)benzamide] | 113 |
| CC1(C)CCC(CN2CCN(c3ccc(C(=O)NS(=O)(=O)c4cnc(OCC5COCCO5)c(Br)c4)c(Oc4cc5cc[nH]c5cc4F)c3)CC2)=C(c2ccc(Cl)cc2)C1 (centres unmarked) [Example 306, N-{[5-bromo-6-(1,4-dioxan-2-ylmethoxy)pyridin-3-yl]sulfonyl}-4-(4-{[2-(4-chlorophenyl)-4,4-dimethylcyclohex-1-en-1-yl]methyl}piperazin-1-yl)-2-[(6-fluoro-1H-indol-5-yl)oxy]benzamide] | 0.671 |
| CN(C)CCCNc1ccc(S(=O)(=O)NC(=O)c2ccc(N3CCN(CC4=C(c5ccc(Cl)cc5)CC(C)(C)CC4)CC3)cc2Oc2cccc3c2c(CN2CCN(C)CC2)cn3CN2CCN(C)CC2)cc1[N+](=O)[O-] [Example 212, 2-({1,3-bis[(4-methylpiperazin-1-yl)methyl]-1H-indol-4-yl}oxy)-4-(4-{[2-(4-chlorophenyl)-4,4-dimethylcyclohex-1-en-1-yl]methyl}piperazin-1-yl)-N-[(4-{[3-(dimethylamino)propyl]amino}-3-nitrophenyl)sulfonyl]benzamide] | 0.375 |
| CN1CCC(Nc2ccc(S(=O)(=O)NC(=O)c3ccc(N4CCN(CC5=C(c6ccc(Cl)cc6)CC(C)(C)CC5)CC4)cc3Oc3cc(Cl)cc(Cl)c3)cc2[N+](=O)[O-])CC1 [Example 35, 4-(4-((2-(4-chlorophenyl)-4,4-dimethylcyclohex-1-en-1-yl)methyl)piperazin-1-yl)-2-(3,5-dichlorophenoxy)-N-((4-((1-methylpiperidin-4-yl)amino)-3-nitrophenyl)sulfonyl)benzamide] | 0.022 |
| O=C(NS(=O)(=O)c1ccc(NCC2CCOCC2)c([N+](=O)[O-])c1)c1ccc(N2CCN(Cc3ccccc3-c3ccc(Cl)cc3)CC2)cc1Oc1ccccc1Cl [Example 5, 4-(4-((4′-chloro-1,1′-biphenyl-2-yl)methyl)piperazin-1-yl)-2-(2-chlorophenoxy)-N-((3-nitro-4-((tetrahydro-2H-pyran-4-ylmethyl)amino)phenyl)sulfonyl)benzamide] | 0.746 |
| CN1CCC(Nc2ccc(S(=O)(=O)NC(=O)c3ccc(N4CCN(CC5=C(c6ccc(Cl)cc6)CC(C)(C)CC5)CC4)cc3Oc3ccccc3F)cc2[N+](=O)[O-])CC1 [Example 122, 4-(4-{[2-(4-chlorophenyl)-4,4-dimethylcyclohex-1-en-1-yl]methyl}piperazin-1-yl)-2-(2-fluorophenoxy)-N-({4-[(1-methylpiperidin-4-yl)amino]-3-nitrophenyl}sulfonyl)benzamide] | < 0.001 |
| O=C(NS(=O)(=O)c1ccc(NCCCN2CCOCC2)c([N+](=O)[O-])c1)c1ccc(N2CCN(Cc3ccccc3-c3ccc(Cl)cc3)CC2)cc1Oc1cccc(-c2ccncc2)c1 [Example 98, 4-(4-((4′-chloro-1,1′-biphenyl-2-yl)methyl)piperazin-1-yl)-N-((4-((3-morpholin-4-ylpropyl)amino)-3-nitrophenyl)sulfonyl)-2-(3-pyridin-4-ylphenoxy)benzamide] | 0.959 |
| CCNCc1cccc(Oc2cc(N3CCN(Cc4ccccc4-c4ccc(Cl)cc4)CC3)ccc2C(=O)NS(=O)(=O)c2ccc(NCC3CCOCC3)c([N+](=O)[O-])c2)c1 [Example 81, 4-(4-((4′-chloro-1,1′-biphenyl-2-yl)methyl)piperazin-1-yl)-2-(3-((ethylamino)methyl)phenoxy)-N-((3-nitro-4-((tetrahydro-2H-pyran-4-ylmethyl)amino)phenyl)sulfonyl)benzamide] | 31 |
| CC1(C)CCC(CN2CCN(c3ccc(C(=O)NS(=O)(=O)c4ccc(NCC5(N)CCOCC5)c([N+](=O)[O-])c4)c(Oc4cccc(Cl)c4)c3)CC2)=C(c2ccc(Cl)cc2)C1 [Example 109, N-[(4-{[(4-aminotetrahydro-2H-pyran-4-yl)methyl]amino}-3-nitrophenyl)sulfonyl]-2-(3-chlorophenoxy)-4-(4-{[2-(4-chlorophenyl)-4,4-dimethylcyclohex-1-en-1-yl]methyl}piperazin-1-yl)benzamide] | 0.237 |
| CC1(C)CCC(CN2CCN(c3ccc(C(=O)NS(=O)(=O)c4ccc(NN5CCOCC5)c([N+](=O)[O-])c4)c(Oc4cc5cc[nH]c5cc4F)c3)CC2)=C(c2ccc(Cl)cc2)C1 [Example 252, 4-(4-{[2-(4-chlorophenyl)-4,4-dimethylcyclohex-1-en-1-yl]methyl}piperazin-1-yl)-2-[(6-fluoro-1H-indol-5-yl)oxy]-N-{[4-(morpholin-4-ylamino)-3-nitrophenyl]sulfonyl}benzamide] | 1.15 |
